Test results as given in article PMC8895762 (BMC Complementary Medicine and Therapies, 2022).
Like-named read-outs stand apart in the source and are kept apart here.

Assays:
[1] = tested on: phosphorylated NF-κB p65 in LPS-stimulated RAW 264.7 macrophages; assay: NF-κB activation by Western blotting; format: cell-based, Murine; settings: 20 μM, LPS 1 μg/mL, 24 h, compared to the LPS group, p < 0.01
Experimental: RAW 264.7 macrophages were seeded and pretreated with respective concentrations of 20 μM of each compound (1, 4–6, 15 and 17) for 1 h, followed by the addition of LPS (1 μg/mL) for 24 h. Subsequently, the total protein was extracted by resuspending the cells in RIPA lysis buffer. In addition, protein concentrations were measured by a Bicinchoninic acid (BCA) assay kit. Proteins were separated using SDS-PAGE gels and then electroplated onto a PVDF membrane, which was blocked with 5% skim milk for 1 h at room temperature in Tris-buffered saline-Tween (TBST). Membranes were washed three times with TBST and then incubated overnight at 4 °C in diluted (1:1000) primary antibody solution (anti-NF-κB p65 or anti-phosphorylated-NF-κB p65). After washing three times with TBST, the membranes were incubated with a 1:5000 dilution of HRP-conjugated secondary antibody for 1 h at room temperature. The immunoreactive bands were determined by densitometry and quantified using a Bio-Rad auto-developer (Bio-Rad, California, USA). All results are expressed as relative ratios to the reference protein GAPDH [16, 17].

[2] = CCK-8 cell viability assay; format: cell-based, Murine; settings: mouse
Experimental: (§1) Murine RAW 264.7 macrophages were purchased from the American Tissue Culture Collection (Manassas, USA). These cells were incubated in DMEM supplemented with 10% FBS, 100 U/mL penicillin and 100 U/mL streptomycin in humidified 5% carbon dioxide (CO2) at 37 °C [16, 17].
(§2) The effects of 19 constituents on the viability of RAW 264.7 macrophages were assessed by CCK-8 assay. Prior to treatment, RAW 264.7 macrophages (5 × 10^3 cells/well) were seeded into 96-well plates and incubated for 24 h. All cultured cells were treated with or without 19 compounds at a concentration of 40 μM at 37 °C for 24 h. After incubation, 10 μL of CCK-8 solution was added to each well and incubated at 37 °C. After 2 h, the absorbance of each well was measured at 450 nm in a microplate reader. Cell viability was calculated using the following formular:
(§3) Cell viability (%) = Asample/Acontrol × 100, where Asample and Acontrol are the absorbance of cells treated with the compound and untreated cells, respectively. Moreover, the latter is expressed as 100% cell viability.

[3] = tested on: IL-6 in LPS-stimulated RAW 264.7 macrophages; assay: IL-6 secretion by ELISA; format: cell-based, Murine; settings: 20 μM, LPS 1 μg/mL, 24 h, compared to the LPS group, p < 0.01
Experimental: (§4) The logarithmic growth phase of RAW 264.7 macrophages was inoculated in 96-well plates at a density of 5 × 10^3 cells/well. After 24 h of incubation, these cells were pretreated with respective concentrations of 20 μM of each compound (1, 4–6, 15 and 17) for 1 h, followed by the addition of LPS (1 μg/mL) for 24 h. Finally, 50 μL of each supernatant solution was taken to measure the concentrations of TNF-α, PGE2, IL-1β and IL-6, using the corresponding commercially available murine ELISA kits in accordance with the manufacturer’s instructions.

[4] = tested on: IL-1β in LPS-stimulated RAW 264.7 macrophages; assay: IL-1β secretion by ELISA; format: cell-based, Murine; settings: 20 μM, LPS 1 μg/mL, 24 h, compared to the LPS group, p < 0.01
Experimental: as §4

[5] = tested on: inflammatory cytokines in cells; parameters: method as in PMID 20221843, PMID 12105943, PMID 18448292, PMID 25821492; settings: cited from earlier work
[6] = tested on: NO production in LPS-stimulated RAW 264.7 macrophages; assay: NO production by the Griess method; format: cell-based, Murine; settings: LPS 1 μg/mL; for IC50: RAW 264.7 macrophages, mean ± SD, n = 3; for inhibition at 40 µM: RAW264.7, read-out: NO inhibition rate; for inhibition at 40 µM / NO inhibition rate: 40 μM
Experimental: as §1
The effects of 19 constituents on NO production in LPS-induced RAW 264.7 macrophages were determined using the Griess method. Prior to treatment, RAW 264.7 macrophages (5 × 10^3 cells/well) were seeded into 96-well plates and incubated for 24 h. […] After 1 h, cells were incubated with or without LPS at a concentration of 1 μg/mL at 37 °C for 24 h. After incubation, 50 μL of each supernatant solution was collected and mixed with equal volumes of Griess Reagent I and Griess Reagent II, respectively. The absorbance (A) was measured at 540 nm after 10 min of incubation at room temperature. The standard concentration of sodium nitrite was used to calculate the nitrite concentration. Moreover, the NO inhibition rate (%) = (ALPS − ALPS + sample)/(ALPS − Acontrol) × 100, where ALPS, ALPS + sample, and Acontrol are the absorbance of LPS model group, LPS + sample group, and DMEM group, respectively.

[7] = tested on: PGE2 in LPS-stimulated RAW 264.7 macrophages; assay: PGE2 secretion by ELISA; format: cell-based, Murine; settings: 20 μM, LPS 1 μg/mL, 24 h, compared to the LPS group, p < 0.01
Experimental: as §4

[8] = tested on: TNF-α in LPS-stimulated RAW 264.7 macrophages; assay: TNF-α secretion by ELISA; format: cell-based, Murine; settings: 20 μM, LPS 1 μg/mL, 24 h, compared to the LPS group, p < 0.01
Experimental: as §4

[9] = tested on: RAW 264.7 macrophages; assay: CCK-8 cell viability assay; format: cell-based, Murine; settings: 40 μM, 24 h, RAW 264.7 macrophages, mean ± SD, n = 3
Experimental: as §1, §2, §3

[10] = tested on: BV2 microglia; parameters: method as in PMID 22552813; settings: 40, 60 and 80 μM; cited from earlier work
[11] = 40 μM, 24 h, RAW 264.7 macrophages, mean ± SD, n = 3, read-out: Cell viability (%)

Compound | IC50 ([6]; 24 h) [µM] | IC50 ([6]; Mus musculus, RAW264.7, 24 h) [µM] | viability at 24 h, 40 µM [2] [%] | inhibition at 40 µM ([6]; Mus musculus, 24 h) [%] | Cell viability (%) [9] [%] | NO inhibition rate ([6]; 24 h) | also measured
O=c1c(O)c(-c2ccc(O)cc2)oc2cc(O[C@@H]3O[C@H](CO)[C@@H](O)[C@H](O)[C@H]3O)cc(O)c12 [Compound 3, kaempferol-7-O-β-D-glucopyranoside] |  | > 40 | 91.1 ± 5.28 | ≤ 50 |  |  | 
O=c1c(O[C@@H]2O[C@H](CO)[C@@H](O)[C@H](O)[C@H]2O[C@@H]2O[C@H](CO)[C@@H](O)[C@H](O)[C@H]2O)c(-c2ccc(O)cc2)oc2cc(O)cc(O)c12 [Compound 5, kaempferol-3-O-sophoroside] | 13.1 ± 1.61 |  |  |  | 93.48 ± 5.33 |  | 
COc1cc(O)c2c(=O)c(O[C@@H]3O[C@H](CO)[C@@H](O)[C@H](O)[C@H]3O[C@@H]3O[C@H](CO)[C@@H](O)[C@H](O)[C@H]3O)c(-c3ccc(O)cc3)oc2c1 [Compound 6, plantanone A] | 12.6 ± 0.76 |  |  |  | 96.89 ± 1.04 |  | 
O=c1c(O[C@@H]2O[C@H](CO)[C@@H](O)[C@H](O)[C@H]2O[C@@H]2O[C@H](CO)[C@@H](O)[C@H](O)[C@H]2O)c(-c2ccc(O)cc2)oc2cc(O[C@@H]3O[C@H](CO)[C@@H](O)[C@H](O)[C@H]3O)cc(O)c12 [Compound 7, kaempferol-3-O-β-D-[β-D-glucopyranosyl-(1 → 2)-glucopyranoside]-7-O-β-D-glucopyranoside] | 26.5 ± 1.53 |  |  |  | 94.03 ± 4.52 |  | 
O=C1C[C@@H](c2ccc(O)cc2)Oc2cc(O)cc(O)c21 [Compound 14, naringenin] |  | 38.5 ± 2.78 |  | > 50 |  |  | Anti-inflammatory effect via inhibition of NF-κB and MAPKs pathways [10]: possessed anti-inflammatory effect; viability at 24 h, 40 µM [2, 11]: 93 ± 6.19%
O=C1c2c(O)cc(O)cc2O[C@H](c2ccc(O)cc2)[C@H]1O [Compound 15, dihydrokaempferol] | 18.3 ± 1.71 | ≤ 20 | 91.3 ± 5.38 | > 50 |  |  | Phosphorylation of NF-κB p65 levels [1]: significantly lower; Level of IL-6 [3]: significantly reduced; Level of IL-1β [4]: significantly reduced; Anti-inflammatory effects by suppressing the secretion of inflammatory cytokines [5]: anti-inflammatory effects; Level of PGE2 [7]: significantly reduced; Level of TNF-α [8]: significantly reduced
kaempferol-3-O-rutinoside [Compound 11] | 31.2 ± 1.09 |  |  |  |  | greater than 50% | Anti-inflammatory effects by suppressing the secretion of inflammatory cytokines [5]: anti-inflammatory effects
plantanone B [Compound 12] | > 40 |  |  |  | 91.93 ± 8.04 | ≤ 50% | 

Continued, in another order:

IC50 ([6]; 24 h) [µM] | IC50 ([6]; Mus musculus, RAW264.7, 24 h) [µM] | Compound | viability at 24 h, 40 µM [2] [%] | inhibition at 40 µM ([6]; Mus musculus, 24 h) [%] | Cell viability (%) [9] [%] | NO inhibition rate ([6]; 24 h) | also measured
18.4 ± 2.67 | ≤ 20 | O=c1c(O)c(-c2ccc(O)cc2)oc2cc(O)cc(O)c12 [Compound 1, kaempferol] | 92.4 ± 3.96 | > 50 |  |  | Phosphorylation of NF-κB p65 levels [1]: significantly lower; Level of IL-6 [3]: significantly reduced; Level of IL-1β [4]: significantly reduced; Anti-inflammatory effects by suppressing the secretion of inflammatory cytokines [5]: anti-inflammatory effects; Level of PGE2 [7]: significantly reduced; Level of TNF-α [8]: significantly reduced
 | > 40 | O=c1c(O[C@@H]2O[C@H](CO)[C@@H](O)[C@H](O)[C@H]2O)c(-c2ccc(O)cc2)oc2cc(O)cc(O)c12 [Compound 2, astragalin] |  | ≤ 50 |  |  | viability at 24 h, 40 µM [2, 11]: 95 ± 1.86%; Anti-inflammatory effects by suppressing the secretion of inflammatory cytokines [5]: anti-inflammatory effects
 | 12.2 ± 1.18 | O=c1c(O[C@@H]2O[C@H](CO)[C@@H](O)[C@H](O)[C@H]2O)c(-c2ccc(O)cc2)oc2cc(O[C@@H]3O[C@H](CO)[C@@H](O)[C@H](O)[C@H]3O)cc(O)c12 [Compound 4, kaempferol-3,7-di-O-β-D-glucopyranoside] | 93.4 ± 6.34 | > 50 |  |  | 
> 40 |  | C[C@@H]1O[C@@H](OC[C@H]2O[C@@H](Oc3c(-c4ccc(O)cc4)oc4cc(O[C@@H]5O[C@H](CO)[C@@H](O)[C@H](O)[C@H]5O)cc(O)c4c3=O)[C@H](O)[C@@H](O)[C@@H]2O)[C@H](O)[C@H](O)[C@H]1O [Compound 8, kaempferol-3-O-rutinoside-7-O-glucopyranoside] |  |  | 95.48 ± 3.54 |  | 
 | > 40 | C[C@@H]1O[C@@H](OC[C@H]2O[C@@H](O[C@H]3[C@H](Oc4c(-c5ccc(O)cc5)oc5cc(O)cc(O)c5c4=O)O[C@H](CO)[C@@H](O)[C@@H]3O)[C@H](O)[C@@H](O)[C@@H]2O)[C@H](O)[C@H](O)[C@H]1O [Compound 9, kaempferol-3-O-α-L-rhamnopyranosyl-(1 → 6)-β-D-glucopyranosyl-(1 → 2)-β-D-glucopyranoside] | 90.7 ± 3.71 | ≤ 50 |  |  | 
 | > 40 | C[C@@H]1O[C@@H](OC[C@H]2O[C@@H](Oc3c(-c4ccc(O)cc4)oc4cc(O)cc(O)c4c3=O)[C@H](O[C@@H]3O[C@H](CO)[C@@H](O)[C@H](O)[C@H]3O)[C@@H](O)[C@@H]2O)[C@H](O)[C@H](O)[C@H]1O [Compound 10, kaempferol-3-O-β-D-glucopyranosyl-(1 → 2)-[α-L-rhamnopyranosyl-(1 → 6)]-β-D-glucopyranoside] | 93.8 ± 5.06 | ≤ 50 |  |  | 
19.9 ± 2.01 |  | OC[C@H]1O[C@@H](OCCc2ccccc2)[C@H](O)[C@@H](O)[C@@H]1O [Compound 17, phenethyl-O-β-D-glucopyranoside] |  |  | 92.21 ± 3.48 | greater than 50% | Phosphorylation of NF-κB p65 levels [1]: significantly lower; Level of IL-6 [3]: significantly reduced; Level of IL-1β [4]: significantly reduced; Level of PGE2 [7]: significantly reduced; Level of TNF-α [8]: significantly reduced
> 40 |  | OC[C@H]1O[C@@H](OC[C@H]2O[C@@H](OCCc3ccccc3)[C@H](O)[C@@H](O)[C@@H]2O)[C@H](O)[C@@H](O)[C@@H]1O [Compound 18, phenethanol-β-gentiobioside] |  |  | 92.51 ± 5.62 | ≤ 50% | 
> 40 |  | C[C@@H]1O[C@@H](OC[C@H]2O[C@@H](OCCc3ccccc3)[C@H](O)[C@@H](O)[C@@H]2O)[C@H](O)[C@H](O)[C@H]1O [Compound 19, phenethyl-O-rutinoside] |  |  | 92.30 ± 9.38 | ≤ 50% | 
> 40 |  | hostaflavanone A [Compound 16] |  |  | 92.56 ± 1.97 | ≤ 50% | 
36.1 ± 3.77 |  | plantanone D [Compound 13] |  |  | 91.84 ± 1.11 |  | 
